Experimental data as given in EP4741401A1, “BENZOTHIAZOIMIDAZOLYL COMPOUND AND USE THEREOF” (ER Stress Research Institute, Inc., priority 2023, dated 2025).
Each block holds one molecule with its values, some of them ahead of it.

How the values were obtained:
[1] = system: endoplasmic reticulum stress response induced by Tm; test: Suppression of endoplasmic reticulum stress response (ERSE2-UPRE-AARE-EGFP reporter fluorescence); format: cell-based; details: 293A reporter cells, incubated at 37°C overnight, read-out: Suppression rank of endoplasmic reticulum stress response
Protocol: A solution of the compound synthesized in "(1) Synthesis of benzothiazoimidazolyl compound" was appropriately diluted with a DMEM solution containing 10% fetal bovine serum (FBS), and the diluted solution was added to a 384-well assay plate at 10 µL/well. Next, 30 µL of a culture medium containing the reporter cells and 10 µL of the Tm solution were mixed, and the mixture was added to the 384-well assay plate at 40 µL/well such that the cell density was 18 × 10^3 cells/well, and the whole was incubated at 37°C overnight.
A multi-plate reader Citation 3 (Bio-Tek) was used to determine the EGFP fluorescence intensity (excitation wavelength: 485 nm, fluorescence wavelength: 528 nm) when the test compound was added. A smaller fluorescence intensity indicates more suppression of the increase in activity of the endoplasmic reticulum stress marker induced by Tm.
A "control" containing the Tm solution and, in place of the test compound solution, an equal volume of DMSO was subjected to the measurement of fluorescence intensity in a similar manner. In addition, a "background" containing a solution prepared in the same manner as for the Tm solution except that no Tm was added and containing, in place of the test compound solution, an equal volume of DMSO was subjected to the measurement of fluorescence intensity in a similar manner.
The fluorescence intensity was determined while the concentration of the test compound was varied, and the 50% effective concentration (IC50) of suppressing the endoplasmic reticulum stress response induced by Tm was calculated.

[2] = system: 293A cells; test: Cytoprotection under endoplasmic reticulum stress conditions (Tm-induced cell death); format: cell-based; details: compound concentration inhibiting Tm-induced cell death by 50%, Tm 0.2 µg/mL, reporter cells
Protocol: The reporter cells same as those used in Example 1 were placed in each well of a 96-well assay plate and were treated with Tm at a final concentration of 0.2 µg/mL and the test compound. […]

[3] = system: cell growth inhibition by endoplasmic reticulum stress; details: from WO2019/131656A; read-out: 50% inhibitory concentration for cell growth inhibition by endoplasmic reticulum stress; cited from earlier work
[4] = system: Familial neurogenic diabetes insipidus model mice; test: Suppression of urine output increase in FNDI model mice; format: in vivo; details: oral, 30 mg/kg/day or 100 mg/kg/day, once daily for 28 days
Protocol: Familial neurogenic diabetes insipidus model mice created by Arima et al. at Nagoya University and carrying a knock-in mutation (Cys98stop) in the neurophysin II gene that causes familial neurogenic diabetes insipidus (FNDI) in humans (Am J Physiol Regul Integr Comp Physiol 2009 296:R1641-9) were divided into two groups. To each group, an IBT-30-containing preparation was forcibly administered orally such that the dosage of IBT-30 was 30 mg/kg/day or 100 mg/kg/day (n=6). The IBT-30-containing preparation was prepared as a suspension of IBT-30 at a final concentration of 0.5% by weight in carboxymethyl cellulose. The oral administration was performed once daily via a feeding tube for 28 days. The urine output was measured daily throughout the 28 days when IBT-30 was administered.

[5] = system: FNDI model mice; test: Number of mutant protein aggregates (inclusion bodies) in vasopressin neurons of brain tissue; format: in vivo; details: oral, 100 mg/kg/day, once daily for 28 days, inclusion bodies of 4.5 µm or more in vasopressin neurons
Protocol: To FNDI model mice, the above IBT-30-containing preparation was forcibly administered orally once daily for 28 days such that the dosage of IBT-30 was 100 mg/kg/day (n=6). In a similar manner, a vehicle preparation free from IBT-30 was forcibly administered orally (n=6). […]

[6] = system: endogenous molecular chaperones; test: Induction of endogenous molecular chaperones in cells; format: cell-based; details: applied to cells

Structure (SMILES): CCCC(=O)NCCc1csc(-c2ccc(Cl)cc2)n1 [azoramide]
- IC50 [3]: 0.086 mM

Structure (SMILES): O=C(O)CCCc1ccccc1 [Compound 4-PBA, 4-phenylbutyric acid, reference compound]
- IC50 [2]: 4000 µM
- IC50 [3]: 5.4 mM

Structure (SMILES): C[C@H](CCC(=O)NCCS(=O)(=O)O)[C@H]1CC[C@H]2[C@@H]3[C@@H](O)C[C@@H]4C[C@H](O)CC[C@]4(C)[C@H]3CC[C@]12C [TUDCA, tauroursodeoxycholic acid, reference compound]
- IC50 [2]: 20 µM
- IC50 [3]: 2.1 mM

Structure (SMILES): C#CCOCc1ccc2c(c1)sc1nc(-c3ccc(Cl)cc3)cn12 [IBT-60, 2-(4-chlorophenyl)-7-((prop-2-yn-1-yloxy)methyl)benzo[d]imidazo[2,1-b]thiazole 2,2,2-trifluoroacetate]
- IC50 [1]: 100 to 1000 nM
- IC50 [2]: 0.9 µM

Structure (SMILES): C#CCCC1(CCOc2cc(-c3cn4c(n3)sc3cc(S(C)(=O)=O)ccc34)ccc2Cl)N=N1 [IBT-63, 2-(3-(2-(3-(but-3-yn-1-yl)-3H-diazirin-3-yl)ethoxy)-4-chlorophenyl)-7-(methylsulfonyl)benzo[d]imidazo[2,1-b]thiazole 2,2,2-trifluoroacetate]
- IC50 [1]: 100 to 1000 nM
- IC50 [2]: 0.35 µM

Structure (SMILES): C#CCCC1(CCOc2cccc(-c3cn4c(n3)sc3cc(S(C)(=O)=O)ccc34)c2)N=N1 [IBT-70, 2-(3-(2-(3-(but-3-yn-1-yl)-3H-diazirin-3-yl)ethoxy)phenyl)-7-(methylsulfonyl)benzo[d]imidazo[2,1-b]thiazole 2,2,2-trifluoroacetate]
- IC50 [1]: 100 to 1000 nM
- IC50 [2]: 0.43 µM

Continued, in another order:

- IC50 [1]: 100 to 1000 nM
Structure (SMILES): CS(=O)(=O)c1ccc2c(c1)sc1nc(-c3ccccc3)cn12 [IBT-21, reference compound]
- IC50 [2]: 0.61 µM
- IC50 [3]: 0.00061 mM

- IC50 [1]: 100 to 1000 nM
Structure (SMILES): CCOC(=O)c1ccc2c(c1)sc1nc(-c3ccc(Cl)cc3)cn12 [IBT-45, ethyl 2-(4-chlorophenyl)benzo[d]imidazo[2,1-b]thiazole-7-carboxylate]
- IC50 [2]: 0.35 µM

- IC50 [1]: 10 to 100 nM
Structure (SMILES): FC(F)(F)c1ccc(-c2cn3c(n2)sc2ccccc23)cc1 [IBT-40, 2-(4-(trifluoromethyl)phenyl)benzo[d]imidazo[2,1-b]thiazole]
- IC50 [2]: 0.1 µM

- IC50 [1]: 100 to 1000 nM
Structure (SMILES): CCOc1ccc(-c2cn3c(n2)sc2cc(S(C)(=O)=O)ccc23)cc1 [IBT-64, 2-(4-ethoxyphenyl)-7-(methylsulfonyl)benzo[d]imidazo[2,1-b]thiazole]
- IC50 [2]: 0.67 µM

- IC50 [1]: 100 to 1000 nM
Structure (SMILES): CNC(=O)CCCNS(=O)(=O)c1ccc2c(c1)sc1nc(-c3ccc(C(F)(F)F)cc3)cn12 [IBT-52, N-methyl-4-((2-(4-(trifluoromethyl)phenyl)benzo[d]imidazo[2,1-b]thiazole)-7-sulfonamido)butanamide]
- IC50 [2]: 0.42 µM

- IC50 [1]: 10 to 100 nM
Structure (SMILES): CCN(CC)C(=O)CCc1ccc2c(c1)sc1nc(-c3ccc(C(F)(F)F)cc3)cn12 [IBT-39, N,N-diethyl-3-(2-(4-(trifluoromethyl)phenyl)benzo[d]imidazo[2,1-b]thiazol-7-yl)propanamide]
- IC50 [2]: 0.08 µM

- IC50 [1]: ≤ 10 nM
Structure (SMILES): COc1cc(-c2cn3c(n2)sc2cc(S(C)(=O)=O)ccc23)ccc1C(F)(F)F [IBT-30, 2-(3-Methoxy-4-(trifluoromethyl)phenyl)-7-(methylsulfonyl)benzo[d]imidazo[2,1-b]thiazole]
- IC50 [2]: 0.004 µM
- urine output [4]: decreases in a dose-dependent manner
- number of inclusion bodies (mutant protein aggregates) [5]: significantly reduced
- induction of endogenous molecular chaperones [6]: not induced
